Measured values published in patent US20230203060A1 (GENFLEET THERAPEUTICS (SHANGHAI) INC., priority 2020, published 2023).
Like-named read-outs stand apart in the source and are kept apart here.

Key:
[1] = system: KRAS G12C mutant NCI-H358 cells; test: Cell proliferation inhibition experiment, 3D spheroid, CellTiter-Glo, NCI-H358; type: cell-based, human; details: Homo sapiens, NCI-H358, 120 h, NCI-H358 (KRAS G12C mutant) 3D spheroid, 5 days with compound, CellTiter-Glo; read-out: H358 IC50
How it was run: (§1)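 Spheroids grown overnight from 800 H358 or 400 A549 cells were treated for 5 days with serially diluted compound (3.16-fold, 0.1% DMSO, 2% FBS). ATP-based luminescence gave IC50.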

[2] = system: A549 cells (KRAS G12S mutant); test: Cell proliferation inhibition experiment, 3D spheroid, CellTiter-Glo, A549; type: cell-based, human; details: A549 (KRAS G12S mutant) 3D spheroid, 5 days with compound, CellTiter-Glo, read-out: A549 IC50
How it was run: as §1

Compound: C=CC(=O)N1CCN2C(=O)c3c(N4CC(N(C)CCOC)CC4(C)C)nc(-c4c(O)cccc4F)c(Cl)c3OCC2C1 (single isomer, unassigned) [Z296-1]
- IC50 [1]: 0.4 nM
- IC50 ([2]; Homo sapiens, A549, 120 h): 3340 nM

Compound: C=CC(=O)N1CCN2C(=O)c3c(N4CCC[C@@]4(C)CO)nc(-c4c(O)cccc4F)c(Cl)c3OC[C@H]2C1 [Z279-2]
- IC50 [1]: 3.8 nM
- IC50 ([2]; Homo sapiens, A549, 120 h): > 30000 nM

Compound: C=CC(=O)N1CCN2C(=O)c3c(N4CC(N(C)C5COC5)CC4(C)C)nc(-c4c(O)cccc4F)c(Cl)c3OC[C@H]2C1 (stereo partly drawn) [Z326, (6aR)-8-acryloyl-4-chloro-1-(2,2-dimethyl-4-(methyl(oxetan-3-yl)amino)pyrrolidin-1-yl)-3-(2-fluoro-6-hydroxyphenyl)-6,6a,7,8,9,10-hexahydro-12H-pyrazino[2,1-c]pyrido[3,4-f][1,4]oxazepin-12-one]
- IC50 [1]: 0.7 nM
- IC50 ([2]; Homo sapiens, A549, 120 h): 8840 nM

Compound: C=CC(=O)N1CCN2C(=O)c3c(N4C[C@@H](O)CC4(C)C)nc(-c4c(O)ccc(Cl)c4F)c(F)c3OC[C@H]2C1 (single isomer, unassigned) [Z340-1]
- IC50 [1]: 5.2 nM
- IC50 ([2]; Homo sapiens, A549, 120 h): 5510 nM

Compound: C=CC(=O)N1CCN2C(=O)c3c(N4CCN(C)C[C@@H]4C)nc(-c4nc(N)cc(C)c4C(F)(F)F)c(Cl)c3OC[C@H]2C1 [Z328-1, (R)-8-acryloyl-3-(6-amino-4-methyl-3-(trifluoromethyl)pyridin-2-yl)-4-chloro-1-((S)-2,4-dimethylpiperazin-1-yl)-6,6a,7,8,9,10-hexahydro-12H-pyrazino[2,1-c]pyrido[3,4-f][1,4]oxazepin-12-one]
- IC50 [1]: 2.2 nM
- IC50 ([2]; Homo sapiens, A549, 120 h): 16100 nM

Compound: C=CC(=O)N1CCN2C(=O)c3c(N4CCN(C)C(C)C4C)nc(-c4c(O)cccc4F)c(Cl)c3OC[C@H]2C1 (stereo partly drawn) [Z369, (6aR)-8-acryloyl-4-chloro-3-(2-fluoro-6-hydroxyphenyl)-1-(2,3,4-trimethylpiperazin-1-yl)-6,6a,7,8,9,10-hexahydro-12H-pyrazino[2,1-c]pyrido[3,4-f][1,4]oxazepin-12-one]
- IC50 [1]: 3.6 nM
- IC50 [2]: 27100 nM

Compound: C=CC(=O)N1CCN2C(=O)c3c(N4CCN(C5COC5)C[C@@H]4C)nc(-c4c(O)cccc4F)c(Cl)c3OC[C@H]2C1 (single isomer, unassigned) [Z239-1]
- IC50 [1]: 15 nM

Compound: C=CC(=O)N1CCN2C(=O)c3c(Nc4c(C(C)C)ncnc4C(C)C)nc(-c4c(O)cccc4F)c(Cl)c3OC[C@H]2C1 [Z15, (6aR)-8-acryloyl-4-chloro-1-((4,6-diisopropylpyrimidin-5-yl)amino)-3-(2-fluoro-6-hydroxyphenyl)-6,6a,7,8,9,10-hexahydro-12H-pyrazino[2,1-c]pyrido[3,4-f][1,4]oxazepin-12-one]
- IC50 [1]: 10 nM
- IC50 ([2]; Homo sapiens, A549, 120 h): 19000 nM

Compound: C=CC(=O)N1CCN2C(=O)c3c(N4C[C@H](O)[C@H]4C)nc(-c4c(O)cccc4F)c(Cl)c3OC[C@H]2C1 (single isomer, unassigned) [Z102-4]
- IC50 [1]: 15.4 nM

Compound: C=CC(=O)N1CCN2C(=O)c3c(N4C[C@@](C)(O)CC4(C)C)nc(-c4c(O)cccc4F)c(Cl)c3OC[C@H]2C1 (single isomer, unassigned) [Z243-1]
- IC50 [1]: 0.6 nM
- IC50 ([2]; Homo sapiens, A549, 120 h): 3100 nM

Compound: C=CC(=O)N1CCN2C(=O)c3c(N4CC[C@@H]5C[C@@H]54)nc(-c4c(O)cccc4F)c(Cl)c3OC[C@H]2C1 (single isomer, unassigned) [Z39-2]
- IC50 [1]: 7.8 nM

Compound: C=CC(=O)N1CCN2C(=O)c3c(N4CCC(O)C4(C)C)nc(-c4c(O)cccc4F)c(Cl)c3OC[C@H]2C1 (stereo partly drawn) [Z241, (6aR)-8-acryloyl-1-(3-hydroxy-2,2-dimethylpyrrolidin-1-yl)-4-chloro-3-(2-fluoro-6-hydroxyphenyl)-6,6a,7,8,9,10-hexahydro-12H-pyrazino[2,1-c]pyrido[3,4-f][1,4]oxazepin-12-one]
- IC50 [1]: 2.6 nM

Compound: C=CC(=O)N1CCN2C(=O)c3c(N4CCN(CCOC)C(C)(C)C4)nc(-c4c(O)cccc4F)c(Cl)c3OC[C@H]2C1 [Z321, (6aR)-8-acryloyl-4-chloro-3-(2-fluoro-6-hydroxyphenyl)-1-(4-(2-methoxyethyl)-3,3-dimethylpiperazin-1-yl)-6,6a,7,8,9,10-hexahydro-12H-pyrazino[2,1-c]pyrido[3,4-f][1,4]oxazepin-12-one]
- IC50 [1]: 4.5 nM

Compound: C=CC(=O)N1CCN2C(=O)c3c(N4CC(O)CC4(C)C)nc(-c4c(O)cccc4F)c(C)c3OC[C@H]2C1 (single isomer, unassigned) [Z336-2]
- IC50 [1]: 5 nM

Compound: C=CC(=O)N1CCN2C(=O)c3c(N4C[C@H](N(C)C)C[C@@H]4C)nc(-c4c(O)cccc4F)c(Cl)c3OC[C@H]2C1 [Z237-1, (6aR)-8-acryloyl-4-chloro-1-((2S,4R)-4-(dimethylamino)-2-methylpyrrolidin-1-yl)-3-(2-fluoro-6-hydroxyphenyl)-6,6a,7,8,9,10-hexahydro-12H-pyrazino[2,1-c]pyrido[3,4-f][1,4]oxazepin-12-one]
- IC50 [1]: 14.6 nM

Compound: C=CC(=O)N1CCN2C(=O)c3c(N4CC(C)(O)CC4(C)C)nc(-c4c(O)cccc4F)c(Cl)c3OC[C@H]2C1 (stereo partly drawn) [Z243, (6aR)-8-acryloyl-4-chloro-3-(2-fluoro-6-hydroxyphenyl)-1-(4-hydroxy-2,2,4-trimethylpyrrolidin-1-yl)-6,6a,7,8,9,10-hexahydro-12H-pyrazino[2,1-c]pyrido[3,4-f][1,4]oxazepin-12-one]
- IC50 [1]: 2.2 nM

Compound: C=CC(=O)N1CCN2C(=O)c3c(N4CCO[C@](C)(COC)C4)nc(-c4c(O)cccc4F)c(Cl)c3OC[C@H]2C1 (single isomer, unassigned) [Z332-1]
- IC50 [1]: 16 nM

Compound: C=CC(=O)N1CCN2C(=O)c3c(N4CC(CO)CC4(C)C)nc(-c4c(O)cccc4F)c(Cl)c3OC[C@H]2C1 (stereo partly drawn) [Z240, (6aR)-8-acryloyl-4-chloro-3-(2-fluoro-6-hydroxyphenyl)-1-(4-(hydroxymethyl)-2,2-dimethylpyrrolidin-1-yl)-6,6a,7,8,9,10-hexahydro-12H-pyrazino[2,1-c]pyrido[3,4-f][1,4]oxazepin-12-one]
- IC50 [1]: 2.4 nM

Compound: C=CC(=O)N1CCN2C(=O)c3c(N4Cc5cn(C)nc5C4(C)C)nc(-c4c(O)cccc4F)c(Cl)c3OC[C@H]2C1 [Z310, (6aR)-8-acryloyl-1-(2,6,6-trimethylpyrrolo[3,4-c]pyrazol-5(2H,4H,6H)-yl)-4-chloro-3-(2-fluoro-6-hydroxyphenyl)-6,6a,7,8,9,10-hexahydro-12H-pyrazino[2,1-c]pyrido[3,4-f][1,4]oxazepin-12-one]
- IC50 [1]: 10.6 nM

Compound: C=CC(=O)N1CCN2C(=O)c3c(N4CCN(C5CC5)C[C@@H]4C)nc(-c4c(O)cccc4F)c(Cl)c3OC[C@H]2C1 [Z312-1, (6aR)-8-acryloyl-4-chloro-1-((S)-4-cyclopropyl-2-methylpiperazin-1-yl)-3-(2-fluoro-6-hydroxyphenyl)-6,6a,7,8,9,10-hexahydro-12H-pyrazino[2,1-c]pyrido[3,4-f][1,4]oxazepin-12-one]
- IC50 [1]: 13.5 nM

Compound: C=CC(=O)N1CCN2C(=O)c3c(N4CC(OC)CC4(C)C)nc(-c4c(O)cccc4F)c(Cl)c3OC[C@H]2C1 (stereo partly drawn) [Z244, (6aR)-8-acryloyl-4-chloro-3-(2-fluoro-6-hydroxyphenyl)-1-(4-methoxy-2,2-dimethylpyrrolidin-1-yl)-12-oxo-6,6a,7,8,9,10-hexahydro-12H-pyrazino[2,1-c]pyrido[3,4-f][1,4]oxazepin-12-one]
- IC50 [1]: 2.9 nM
